Measurements reported in patent US20260256763A1, “Aromatic Amide Derivative, And Preparation Method Therefor And Use Thereof” (Zhejiang Hisun Pharmaceutical Co., Ltd., priority 2023, published 2026).

Assays:
[1] = system: HT-29 cells; experiment: Inhibition on HT-29 cell proliferation (CellTiter-Glo); assay type: cell-based; details: Homo sapiens, HT-29 cells (TP53 R273H mutation), 120 hours
Method: Influences of the compounds of the present invention on HT-29 cell proliferation were determined by the following method. HT-29 cells (containing TP53 R273H mutation) were purchased from the Cell Bank of Shanghai Institute of Biochemistry and Cell Biology, Chinese Academy of Sciences, and cultured in a McCOY's 5A culture medium containing 10% fetal bovine serum, 100 U penicillin and 100 μg/mL streptomycin. A cell viability was determined by a CellTiter-Glo® Luminescent Cell Viability Assay kit (Promega, article number G7573).
An experimental method was operated according to steps in the instruction of the kit, which was briefly described as follows: a test compound was dissolved in DMSO first to prepare a 10 mM stock solution, then the stock solution was diluted with the above McCOY's 5A culture medium to prepare a test sample, and a final concentration of the compound was in a range of 1000 nM-0.015 nM. Cells in a logarithmic growth phase were inoculated into a 96-well cell culture plate at a density of 1000 cells per well, cultured in a 5% CO2 incubator at 37° C. overnight, and then the test compound was added to continuously culture for 120 hours. After the culture was ended, 50 µL of CellTiter-Glo detection solution was added to each well, the plates were shaken for 5 minutes, and then allowed to stand for 10 minutes, and subsequently, a luminous value of each well of sample was read by a microplate reader in a Luminescence mode. By comparing with a numerical value of a control group (0.3% DMSO), a percentage inhibition rate of the compound at each concentration was calculated, and then nonlinear regression analysis was carried out based on concentration logarithm-inhibition rate of the compound in GraphPad Prism 5 software, so as to obtain an IC50 value of the compound in inhibition on cell proliferation, which are shown in Table 2.

[2] = molecular target: T1, recombinant human KIF18A (Homo sapiens, UniProt Q8NI77); experiment: Inhibition on KIF18A enzyme activity (ADP-Glo); assay type: biochemical; details: recombinant human KIF18A 100 nM, ATP 60 μM
T1 construct: purchased GenScript
Outline: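 Recombinant human KIF18A (100 nM final) was preincubated with compound for 20 min at room temperature, then ATP (60 μM final) was added for 20 min. ADP formed was quantified by ADP-Glo as a luminescence read-out.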

T1 sequence (Q8NI77 whole entry): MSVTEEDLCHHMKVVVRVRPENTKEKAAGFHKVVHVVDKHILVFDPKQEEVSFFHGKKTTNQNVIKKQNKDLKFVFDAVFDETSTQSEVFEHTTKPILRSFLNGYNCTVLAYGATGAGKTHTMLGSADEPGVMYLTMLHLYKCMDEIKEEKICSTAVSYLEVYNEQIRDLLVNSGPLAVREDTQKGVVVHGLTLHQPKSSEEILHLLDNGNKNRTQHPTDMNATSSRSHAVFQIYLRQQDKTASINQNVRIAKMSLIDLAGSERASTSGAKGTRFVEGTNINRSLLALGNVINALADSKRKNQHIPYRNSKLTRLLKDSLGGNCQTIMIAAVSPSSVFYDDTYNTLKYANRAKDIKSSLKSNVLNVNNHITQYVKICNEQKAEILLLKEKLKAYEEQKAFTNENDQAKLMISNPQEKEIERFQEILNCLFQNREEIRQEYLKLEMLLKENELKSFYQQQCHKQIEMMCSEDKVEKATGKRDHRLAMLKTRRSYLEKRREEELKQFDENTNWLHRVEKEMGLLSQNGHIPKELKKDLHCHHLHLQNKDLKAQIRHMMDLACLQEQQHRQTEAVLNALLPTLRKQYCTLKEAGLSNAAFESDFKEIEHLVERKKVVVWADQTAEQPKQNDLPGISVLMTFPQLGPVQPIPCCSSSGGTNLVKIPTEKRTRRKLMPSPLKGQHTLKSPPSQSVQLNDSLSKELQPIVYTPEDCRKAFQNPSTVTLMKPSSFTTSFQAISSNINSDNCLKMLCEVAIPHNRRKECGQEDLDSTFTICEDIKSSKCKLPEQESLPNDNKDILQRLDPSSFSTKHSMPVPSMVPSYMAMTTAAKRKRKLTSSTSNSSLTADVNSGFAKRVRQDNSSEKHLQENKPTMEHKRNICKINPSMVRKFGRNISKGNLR
T1 sequence (P68363 whole entry partner): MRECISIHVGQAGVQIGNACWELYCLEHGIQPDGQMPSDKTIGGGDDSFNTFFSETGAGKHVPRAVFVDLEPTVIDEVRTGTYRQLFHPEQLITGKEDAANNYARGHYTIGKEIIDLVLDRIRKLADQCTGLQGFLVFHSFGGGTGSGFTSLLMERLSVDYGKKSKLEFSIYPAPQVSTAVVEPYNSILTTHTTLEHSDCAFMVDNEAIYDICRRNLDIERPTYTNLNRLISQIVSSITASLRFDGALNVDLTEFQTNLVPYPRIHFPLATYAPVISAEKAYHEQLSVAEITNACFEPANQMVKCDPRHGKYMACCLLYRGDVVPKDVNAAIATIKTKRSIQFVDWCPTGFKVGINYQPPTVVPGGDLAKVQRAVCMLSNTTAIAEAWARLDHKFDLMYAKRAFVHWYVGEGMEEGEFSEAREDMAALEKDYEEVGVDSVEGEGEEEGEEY
T1 sequence (Q9BVA1 whole entry partner): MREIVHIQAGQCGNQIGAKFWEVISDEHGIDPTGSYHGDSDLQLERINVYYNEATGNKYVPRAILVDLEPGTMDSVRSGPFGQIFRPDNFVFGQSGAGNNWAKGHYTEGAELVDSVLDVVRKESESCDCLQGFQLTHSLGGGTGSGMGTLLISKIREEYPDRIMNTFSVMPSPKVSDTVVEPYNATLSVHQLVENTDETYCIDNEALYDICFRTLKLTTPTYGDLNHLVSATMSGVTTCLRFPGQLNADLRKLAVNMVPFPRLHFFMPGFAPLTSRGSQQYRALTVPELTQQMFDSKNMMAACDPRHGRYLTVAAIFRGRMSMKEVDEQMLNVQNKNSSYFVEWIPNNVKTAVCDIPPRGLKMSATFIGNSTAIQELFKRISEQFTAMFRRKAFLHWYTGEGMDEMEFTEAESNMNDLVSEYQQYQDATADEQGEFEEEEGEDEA

CCS(=O)(=O)Nc1ccc(C(=O)Nc2cc3c(c(N4CCC(F)(F)CC4)c2)OCC3)c(N2CCC3(CC2)CC3)c1 [Example 1, N-(7-(4,4-difluoropiperidin-1-yl)-2,3-dihydrobenzofuran-5-yl)-4-(ethylsulfonamido)-2-(6-azaspiro[2.5]octan-6-yl)benzamide]
IC50 [1]: 2.4 nM | IC50 [2]: 52 nM
